Data taken from PMC5618191 (Toxins, 2017).
Like-named read-outs stand apart in the source and are kept apart here.

Legend:
[1] = system: SW480 colorectal adenocarcinoma cells; assay: Cell viability assay (MTT, 72 h); type: cell-based, human
Description: (§1) For the cell lines KB-3-1 and SW480 2 × 10^3 cells, for NIH/3T3, CT-26, HaCaT, and GH354 cells 3 × 10^3 cells and for ME-180 and SW620 cells 4 × 10^3 cells were seeded into 96-well pates and incubated at 37 °C (5% CO2) overnight. […] For higher cell confluency, NIH/3T3, CT-26, HaCaT, KB-3-1, and SW480 cells were grown to a cell density of approximately 50–60% before treatment. […] The percentage of viable cells was detected after incubation with 3-(4,5-dimethylthiazol-2-yl)-2,5-diphenyltetrazolium bromide (MTT) at 37 °C for 1–4 h, depending on the cell line, according to the user manual (EZ4U, Biomedica, Vienna, Austria). […] All experiments were conducted using full-growth media with 10% FBS in triplicate and repeated three times. The cell confluency was analyzed by Image J 1.50i (NIH, New York, NY, USA).

[2] = system: SW620 colon metastasis cells; assay: Cell viability assay (MTT, 72 h); type: cell-based, human
Description: as §1

[3] = system: GH354 cervix adenocarcinoma cells; assay: Cell viability assay (MTT, 72 h); type: cell-based, human; details: GH354, sparse (5–10% confluency)
Description: as §1

[4] = system: HaCaT non-malignant keratinocytes; assay: Cell viability assay (MTT, 72 h); type: cell-based, human
Description: as §1

[5] = system: ME-180 cervix metastasis cells; assay: Cell viability assay (MTT, 72 h); type: cell-based, human; details: ME-180, sparse (5–10% confluency)
Description: as §1

[6] = system: CT-26-derived tumor allografts; assay: CT-26 allograft mouse model; type: in vivo, BALB/c mice
Description: For the allograft experiment, 4 × 10^5 CT-26 cells were resuspended in 50 µL RPMI medium and injected subcutaneously into the right flank of eight, 6–8 weeks old, male BALB/c mice that were obtained from Harlan Laboratories (San Pietro al Natisone, Italy). Likewise, in the xenograft experiment, 1 × 10^6 KB-3-1 cells in 50 µL RPMI medium were injected subcutaneously into the right flank of eight, 6–8 weeks old, male CB-17/IcrHanHsd-Prkdc severe combined immunodeficiency (SCID) mice. Of each group, four animals were randomly assigned to the control or to the treatment group. […] All animals were kept under pathogen-free conditions and all procedures were performed in a laminar flow hood. Effects of the treatment were assessed by daily recording of tumor size with a microcaliper and parameters indicating the animals’ overall health condition (e.g., body weight, fatigue, grooming, ragged coat, food and fluid consumption). Tumor volumes (mm^3) were calculated using the formula: (length × width^2)/2. […] The tumor mass was weighed and organs and tissues for immunohistochemical experiments were fixed in 4% formalin/PBS (Roti®-Histofix 4%, Roth, Karlsruhe, Germany) or shock-frozen in liquid nitrogen and stored at −80 °C until the samples were prepared for LC-MS/MS analysis. The experiments were approved by the ethics committee of the Austrian Federal Ministry of Science, Research, and Economy (BMWF-66.009/0084-II/3b/2013, date of approval: 5 September 2013) and performed in line with the Arrive guidelines for animal care and protection and with guidelines from the Austrian Animal Science Association and from the Federation of European Laboratory Animal Science Associations (FELASA).
From each mouse from both the control (n = 4) and the treatment group (n = 4), tissue samples were formalin-fixed, paraffin-embedded and used to prepare serial 3 µm sections. Then, slices were deparaffinized and rehydrated. To evaluate the percentages of interphase/resting, mitotic and dead (apoptotic/necrotic) cell fractions in tumor specimens, sections were stained with hematoxylin and eosin (H/E) by means of standard protocols. Numbers of the three cell fractions were analyzed in a blinded setup in at least four images of H/E-stained tumor sections, taken under a 40 × objective microscope lens. In addition, for the quantification of areas of dead tumor tissue in whole tumor sections, the H/E-stained slides were scanned with a Pannoramic MIDI automated slide scanner (3[…], Budapest, Hungary) and evaluated using Definiens’ TissueStudio® 4.0 (Definiens®, Munich, Germany) software and Pannoramic Viewer (3[…]) software. To evaluate the fraction of apoptotic cells in tumor sections a terminal deoxynucleotidyl transferase (TdT) deoxyuridine triphosphate (dUTP) nick end labeling (TUNEL) assay was performed applying the In Situ Cell Death Kit TMR (red) (Roche Diagnostics, Mannheim, Germany) according to the manufacturer’s protocol. Afterwards, slides were covered with Vectashield anti-fade mounting medium with DAPI (H-1200, Vector Laboratories, Burlingame, CA, USA). Slides were protected from light until they were scanned with a Pannoramic MIDI automated slide scanner (3[…]) and analyzed via digital image analysis software (Definiens’ TissueStudio® 4.0, Definiens®). In order to visualize the proliferative cell fraction (cells in the interphase or M-phase) of tumors, KB-3-1 tumor sections were stained with the Ki-67 (clone MiB-1) antibody from DAKO (1:100; Glostrup, Denmark) and for CT-26 tumor sections with Ki-67 (1:100; D3B5, rabbit, Cell Signaling, Danvers, USA). The primary antibody was incubated for 30 min at room temperature in a humid chamber and after rinsing the slides for 3 min in PBS + 0.1% Tween, the UltraVision LP detection system was applied according to the manufacturer’s instructions (Thermo Fisher Scientific, Massachusetts, MA, USA). Sections were counterstained with hematoxylin. […]

[7] = system: CT-26 murine colon carcinoma cells; assay: Cell viability assay (MTT, 72 h); type: cell-based, mouse
Description: as §1

[8] = system: NIH/3T3 murine non-malignant fibroblasts; assay: Cell viability assay (MTT, 72 h); type: cell-based, mouse
Description: as §1

[9] = SW480, sparse (5–10% confluency)
[10] = SW620, sparse (5–10% confluency), 72 h
[11] = CT-26, sparse (5–10% confluency), 72 h
[12] = NIH/3T3, sparse (5–10% confluency), 72 h

## beauvericin
[1]; SW480, higher density (50–60% confluency), read-out: IC50 value
  IC50: 3.7 µM
[1]; [9]
  Mean IC25 ± SD: 2.1 ± 1.3 µM
  Mean IC75 ± SD: 4.2 ± 2.7 µM
[1]; SW480, sparse (5–10% confluency), read-out: Mean IC50 ± SD
  IC50: 3.3 ± 0.3 µM
[2]; [10]
  Mean IC25 ± SD: 0.3 ± 0.02 µM
  Mean IC75 ± SD: 1.9 ± 0.2 µM
[2]; SW620, sparse (5–10% confluency), 72 h, read-out: Mean IC50 ± SD
  IC50: 700 ± 100 nM
[2]; sparse conditions
  IC50 of SW620 lower as compared to SW480: 4.7 fold
  IC50 of SW620 lower than normal HaCaT cells: 5.6 fold
[3]
  Mean IC25 ± SD: 2.2 ± 0.6 µM
  Mean IC75 ± SD: 6.3 ± 2.1 µM
[3]; read-out: Mean IC50 ± SD
  IC50: 3.6 ± 1.2 µM
[4]; higher density (50–60% confluency), read-out: IC50 value
  IC50: > 10 µM
[4]; sparse (5–10% confluency)
  Mean IC25 ± SD: 2.7 ± 0.2 µM
  Mean IC75 ± SD: 4.8 ± 0.7 µM
[4]; sparse (5–10% confluency), read-out: Mean IC50 ± SD
  IC50: 3.9 ± 0.4 µM
[5]
  Mean IC25 ± SD: 1.6 ± 0.8 µM
  Mean IC75 ± SD: 4.5 ± 1.2 µM
[5]; read-out: Mean IC50 ± SD
  IC50: 2200 ± 700 nM
[6]; 5 mg/kg bw/day i.p., day 14, vs untreated, p = 0.057
  Average tumor weight reduction: 60%
[6]; 5 mg/kg bw/day i.p., two cycles, day 14, vs solvent control
  Reduction of mean tumor volume: 52.8%
[6]; H/E, treated vs control, p < 0.05
  Higher rate of scattered cells with signs of cell death (apoptosis or necrosis) in viable tumor regions: 22%
[6]; treated group, tumor sections, control 66.9 ± […]
  Ki-67-positive (proliferating) tumor cells: 81.6 ± 3.7%
[6]; treated group, control 0.4 ± 0.1%
  Mitotic cells in H/E-stained tumor sections: 0.3 ± 0.2%
[6]; treated versus untreated, p = 0.065
  Increase of average apoptosis rate (TUNEL) in viable tumor areas: 2.1 fold
[6]; treated vs control, p < 0.05
  Increase of necrotic areas in H/E-stained whole tumor sections: 2.2 fold
[7]; 0.5 µM, higher density (50–60%), murine models
  Tumor cell viability: significantly reduced
[7]; [11]
  Mean IC25 ± SD: 1.4 ± 0.2 µM
  Mean IC75 ± SD: 2.7 ± 0.5 µM
[7]; CT-26, sparse (5–10% confluency), 72 h, read-out: Mean IC50 ± SD
  IC50: 1800 ± 200 nM
[8]; 1 µM, higher density (50–60%), murine models
  Viability of non-malignant cells: no reduction of viability
[8]; NIH-3T3, higher density (50–60% confluency), 72 h, read-out: IC50 value
  IC50: 9.4 µM
[8]; [12]
  Mean IC25 ± SD: 1.2 ± 0.6 µM
  Mean IC75 ± SD: 6.5 ± 0.7 µM
[8]; NIH/3T3, sparse (5–10% confluency), 72 h, read-out: Mean IC50 ± SD
  IC50: 3.1 ± 0.2 µM
[8]; sparse conditions
  IC50 higher for non-malignant NIH/3T3 as compared to CT-26: 1.7 fold
  IC75 higher for non-malignant NIH/3T3 as compared to CT-26: 2.4 fold
